Assay results from paper PMC9973015 (mBio, 2023).
pEC50: −log10 of the molar value.

Experiments:
[1] = system: SARS-CoV-2 3CLpro L50F E166A L167F (USA-WA1 background); format: cell-based; details: read-out: L50F E166A L167V EC50
[2] = system: SARS-CoV-2 3CLpro E166A L167F (USA-WA1 background); format: cell-based; details: for pEC50: read-out: E166A L167V EC50
[3] = target: SARS-CoV-2 3CLpro L50F E166A L167F (Severe acute respiratory syndrome coronavirus 2, UniProt P0DTD1, E3429A/L3313F/L3430F); format: biochemical
[4] = system: SARS-CoV-2 3CLpro L50F (USA-WA1 background); format: cell-based
SARS-CoV-2 3CLpro E166V = details: cited from earlier work
[5] = system: SARS-CoV-2 L50F E166A L167F; format: cell-based

Structure (SMILES)	pEC50 [1]	pEC50 [2]	low concentration that partially rescues impaired enzymatic activity of the mutants [3]	pEC50 [4]	E166A L167V FC, fold change of EC50 [2]	level of resistance conferred by E166V (SARS-CoV-2 3CLpro E166V)	L50F FC, fold change of EC50 [4]	pEC50 [5]
COc1cccc2[nH]c(C(=O)N3C[C@@H]4CCC[C@@H]4[C@H]3C(=O)N[C@@H](C[C@@H]3CCCNC3=O)C(=O)CO)cc12 [ALG-097161, (1S,3aR,6aS)-N-((S)-4-Hydroxy-3-oxo-1-((S)-2-oxopiperidin-3-yl)butan-2-yl)-2-(4-methoxy-1H-indole-2-carbonyl)octahydrocyclopenta[c]pyrrole-1-carboxamide]	[…]	5.54	[…]	6.01	–	–	–	–
Cn1cnc(Cn2c(=O)[nH]/c(=N\c3cc4cn(C)nc4cc3Cl)n(Cc3cc(F)c(F)cc3F)c2=O)n1 [Ensitrelvir, ensitrelvir]	5.03	5.10	–	6.62	8.0 [38] (2.8–12.7) (n = 4)	23	0.24 [1.1] (0.18–0.31)	–
CC(C)(C)[C@H](NC(=O)C(F)(F)F)C(=O)N1C[C@H]2[C@@H]([C@H]1C(=O)N[C@H](C#N)C[C@@H]1CCNC1=O)C2(C)C [Nirmatrelvir, nirmatrelvir]	5.49	5.96	–	6.80	–	100	–	5.21
COc1cccc2[nH]c(C(=O)N[C@@H](CC(C)C)C(=O)N[C@@H](C[C@@H]3CCNC3=O)C(=O)CO)cc12 [PF-00835231]	–	–	around 0.05 μM	–	–	–	–	5.36
